“And” between values parts separate entries of the source, which are not always exact repeats. Equal entries are not always repeated.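 Five compound concentrations were applied to cells in 96-well plates for 48 hours; endpoints were derived by simple linear interpolation of the resulting dose-response curve. Here, GI50 denotes the concentration required for 50% inhibition of growth. Definition used: TGI = concentration required for complete inhibition of growth.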

In PubChem BioAssay (NCI) one finds TGI and GI50 data, which are given here for ten compounds.

Holding throughout (experiment): NCI anticancer screen, dose series, 48 h
The subject of experiment [1] is 786-0 renal.
For experiment [2], the system named is A498 renal.
Experiment [3] has as its system M14 melanoma.
Experiment [4] concerns MALME-3M melanoma.
In experiment [5] the test system is MCF7 breast.
In experiment [6] the test system is NCI-H460 lung.
For experiment [7], the system named is OVCAR-5 ovarian.
Experiment [8] has as its system SF-268 CNS.
Experiment [9] deals with SK-MEL-5 melanoma.
For experiment [10], the system named is SNB-75 CNS.

Regarding `N#C/C(=C\c1ccc2ccccc2c1)C(=O)c1ccccc1`, the TGI in [1] was over 85.5 µM; in [2], over 100 µM; in experiment [3], over 88.4 µM; in [4], over 100 µM; in [5], over 100 µM; in experiment [6], over 100 µM. The TGI is over 100 µM in [7], over 100 µM in experiment [8], over 78.5 µM in experiment [9] and over 100 µM in experiment [10].
As for `NS(=O)(=O)c1ccc(N=Nc2c(O)c(C(=O)O)cc3ccccc23)cc1`, the TGI was over 100 µM in experiment [1]; over 100 µM in [2]; over 100 µM in experiment [3]; 65.9 µM in experiment [4]; over 100 µM in [5]; over 100 µM in [6]. For the same compound, the TGI in [7], in experiment [8], in experiment [9] and in experiment [10] was over 100 µM each time.
Turning to `NC(N)=N/N=C/c1c(Cl)cccc1Cl`, the GI50 was 18 µM in [1]; 3.98 µM in experiment [2]; 16.2 µM in [4]; 17.2 µM in [5]; 15.6 µM in experiment [6]; 22.4 µM in experiment [7]. For the same compound, the GI50 in experiment [8] was 23.9 µM; in experiment [9] it was 14.6 µM; in experiment [10] it was 16.7 µM. Also, the TGI amounted to 43.7 µM in experiment [1]; 36.9 µM in [2]; 33.5 µM in experiment [4]; 41.5 µM in [5]; 32.5 µM in experiment [6]; 79.8 µM in [7]. In addition, the TGI in experiment [8] turned out to be 89.4 µM; in experiment [9] it was 27.7 µM; in experiment [10], 54.1 µM.
As to `CCn1c(O)c(/C=N/NC(=O)C(C)c2ccc(CC(C)C)cc2)sc1=S` (centres undefined), the GI50 was 0.606 µM in experiment [1]; 0.243 µM in experiment [2]; 0.285 µM in [3]; 0.331 µM in [4]; 0.346 µM in experiment [5]; 0.353 µM in experiment [6]. The GI50 in [7] was 0.619 µM; in [8] it was 1.63 µM; in experiment [9] it was 0.489 µM; in experiment [10], 0.241 µM. The TGI was over 40.9 µM in [1]; 0.87 µM in experiment [2]; 14.5 µM in [3]; over 43 µM in experiment [4]; over 35.1 µM in experiment [5]; 10.9 µM in experiment [6]. In addition, the TGI was over 44.7 µM in experiment [7], over 43.4 µM in [8], 3.26 µM in experiment [9] and 0.757 µM in [10].
As for `NC1CCN(Cc2ccccc2)CC1`, the GI50 in experiment [1], in experiment [3], in experiment [5], in experiment [6], in experiment [7] and in [8] was over 100 µM each time. The GI50 in experiment [9] is 24.2 µM; in experiment [10], over 100 µM. For the same compound, the TGI in experiment [1], in experiment [3], in experiment [5], in experiment [6], in [7] and in experiment [8] was over 100 µM in each case. Also, the TGI in [9] and in experiment [10] was over 100 µM in each case.
With `C/C(N=NC(=S)N1CC2CCC(CC2)C1)=C1\C=CC=CN1O`, the TGI was over 100 µM in [1]; over 94.9 µM in [2]; 20.3 µM in [3]; over 82.4 µM in [4]; over 100 µM in experiment [5]; 42.7 µM in experiment [6]. The TGI is over 100 µM in [7], over 100 µM in [8], 41.1 µM in [9] and 85.9 µM in [10].
As to `CCCC(=O)Nc1cn(COC)c(C(=O)N2C[C@@H]3C[C@]34C2=CC(=O)c2[nH]cc(C)c24)n1`, the GI50 in experiment [1] was 3.14 µM; in [3], 4.12 µM; in experiment [6], 2.44 µM; in experiment [7], 3.3 µM; in experiment [8], 2.65 µM; in experiment [9], 3.28 µM. The GI50 in [10] was 14.3 µM. Moreover, the TGI is 14.8 µM and 10.1 µM in experiment [1]; 18.2 µM in experiment [2]; 50 µM and 16.2 µM in [3]; 6.66 µM in experiment [4]; 50 µM and 11.6 µM in experiment [5]; 13.9 µM and 5.08 µM in experiment [6]. Moreover, the TGI in experiment [7] is 50 µM and 9.52 µM; in experiment [8], 30.5 µM and 8.66 µM; in experiment [9], 12.8 µM and 11.8 µM; in [10], 23.1 µM and 28.6 µM.
For the compound `NC(N)=NCCCC(=O)O`, the TGI in experiment [1], in experiment [2], in experiment [3], in [4], in experiment [5] and in [6] was over 100 µM in each case. Further, the TGI in [7], in [8], in [9] and in experiment [10] was over 100 µM in each case.
Regarding `NNC(=O)CNc1cccc(Br)c1`, the TGI in experiment [1], in experiment [2], in [3], in experiment [4], in experiment [5] and in experiment [6] was over 100 µM throughout. In addition, the TGI in [7], in experiment [8], in [9] and in experiment [10] was over 100 µM throughout.
On to `C=CCC1(c2ccc(OC)cc2)C=CC(=O)CC1` (centres undefined), for which the TGI in [1], in experiment [3], in experiment [5], in experiment [6], in [7] and in experiment [8] was over 100 µM in each case. The TGI in experiment [9] and in [10] was over 100 µM each time.
